Source: patent US9795596B2, “Pharmaceutical diagnostic” (Novartis AG, priority 2012, dated 2017)

Legend:
Type in all cases: biochemical, bovine
[1] = molecular target: T1, PI3Kα wildtype (wt) (Bos taurus, UniProt P32871); assay: Enzymatic HTRF assay, PI3Kα wild-type
T1 construct: His; made in house; host or cells: Sf9 insect cells (baculovirus co-infection)
Description: The Phosphoinositide 3-kinase (PI3-Kinase or PI3K) Homogenous Time-Resolved (HTRF®) assay kit is purchased from Upstate (now Millipore Corporation, Billerica, Mass., USA). PIP2 and PiP3 is purchased from Avanti Polar Lipids (Alabaster, Ala., USA), microplates from Greiner (Frickenhausen, Germany; Catalog No. 781207). All other reagents are purchased from Sigma (St Louis, Mo., USA). […]
PI3K inhibitor (S)-Pyrrolidine-1,2-dicarboxylic acid 2-amide 1-({4-methyl-5-[2-(2,2,2-trifluoro-1,1-dimethyl-ethyl)-pyridin-4-yl]-thiazol-2-yl}-amide) (hereinafter “Compound I”) is diluted successively in Dimethyl sulfoxide (DMSO) and in buffer (final concentration: 2.5% DMSO). […] The plate is read using Tecan's GeniosPro® multilabel reader (from Tecan Group Ltd., Männedorf, Switzerland) in time-resolved fluorescence mode (Excitation filter: 340 nm; Emission filter 1: 620 nm; Emission filter 2: 665 nm; Mirror: dichroic2; Lag time: 150 μs; Integration time: 500 μs; 10 flashes).
(§1) The HTRF signal is determined according to the formula: HTRF signal=10000×(emission at 665 nm/emission at 620 nm). […]

[2] = molecular target: T2, PI3Kα Q859A mutant (Bos taurus, UniProt P32871, Q859A); assay: Enzymatic HTRF assay, PI3Kα Q859A mutant
T2 construct: His; made in house; host or cells: Sf9 insect cells (baculovirus co-infection)
Description: (§2) Mutagenesis to generate PI3Kα (p110α) mutant Q859A is performed with the QuikChange II Site-Directed Mutagenesis kit (Stratagene (cat. no 200523) and the oligonucleotides
(§3) The Phosphoinositide 3-kinase (PI3-Kinase or PI3K) Homogenous Time-Resolved (HTRF®) assay kit is purchased from Upstate (now Millipore Corporation, Billerica, Mass., USA). PIP2 and PiP3 is purchased from Avanti Polar Lipids (Alabaster, Ala., USA), microplates from Greiner (Frickenhausen, Germany; Catalog No. 781207). All other reagents are purchased from Sigma (St Louis, Mo., USA).
(§4) The enzymatic Homogenous Time-Resolved Fluorescense (HTRF®) assay (from Upstate (now Millipore Corporation, Billerica, Mass., USA) is performed essentially as described by Sugita et al. (2008), Biochem. Biophys. Res. Commun 377(3):941-5. PI3Kα (0.25-1.5 ng) is incubated for 60 minutes at room temperature in 20 μl buffer containing 10 mM MgCl2, 30 μM ATP, 20 μM 1,2-dioctanoyl-sn-glycero-3-phospho-(1′-myo-inositol-4′,5′-bisphosphate) (ammonium salt) (PIP2), 150 mM NaCl, 5 mM (dl-Dithiothreitol) DTT, and 25 mM Tris/HCl (pH 7.5) in 384-well white plates. The kinase reaction is initiated by adding ATP (30 μM) for inhibition studies and by adding PI3Kα for ATP kinetics (0-200 μM ATP).
(§5) PI3K inhibitor (S)-Pyrrolidine-1,2-dicarboxylic acid 2-amide 1-({4-methyl-5-[2-(2,2,2-trifluoro-1,1-dimethyl-ethyl)-pyridin-4-yl]-thiazol-2-yl}-amide) (hereinafter “Compound I”) is diluted successively in Dimethyl sulfoxide (DMSO) and in buffer (final concentration: 2.5% DMSO). The kinase reaction is stopped by addition of the HTRF reagents according to manufacturer's instructions. […] The plate is read using Tecan's GeniosPro® multilabel reader (from Tecan Group Ltd., Männedorf, Switzerland) in time-resolved fluorescence mode (Excitation filter: 340 nm; Emission filter 1: 620 nm; Emission filter 2: 665 nm; Mirror: dichroic2; Lag time: 150 μs; Integration time: 500 μs; 10 flashes).
as §1

[3] = test system: PI3Kα Q859A mutant; assay: Enzymatic HTRF assay, PI3Kα Q859A mutant; details: IC50 Q859A / IC50 wildtype
Description: as §2, §3, §4, §5, §1

T2 sequence (P32871 whole entry Q859A): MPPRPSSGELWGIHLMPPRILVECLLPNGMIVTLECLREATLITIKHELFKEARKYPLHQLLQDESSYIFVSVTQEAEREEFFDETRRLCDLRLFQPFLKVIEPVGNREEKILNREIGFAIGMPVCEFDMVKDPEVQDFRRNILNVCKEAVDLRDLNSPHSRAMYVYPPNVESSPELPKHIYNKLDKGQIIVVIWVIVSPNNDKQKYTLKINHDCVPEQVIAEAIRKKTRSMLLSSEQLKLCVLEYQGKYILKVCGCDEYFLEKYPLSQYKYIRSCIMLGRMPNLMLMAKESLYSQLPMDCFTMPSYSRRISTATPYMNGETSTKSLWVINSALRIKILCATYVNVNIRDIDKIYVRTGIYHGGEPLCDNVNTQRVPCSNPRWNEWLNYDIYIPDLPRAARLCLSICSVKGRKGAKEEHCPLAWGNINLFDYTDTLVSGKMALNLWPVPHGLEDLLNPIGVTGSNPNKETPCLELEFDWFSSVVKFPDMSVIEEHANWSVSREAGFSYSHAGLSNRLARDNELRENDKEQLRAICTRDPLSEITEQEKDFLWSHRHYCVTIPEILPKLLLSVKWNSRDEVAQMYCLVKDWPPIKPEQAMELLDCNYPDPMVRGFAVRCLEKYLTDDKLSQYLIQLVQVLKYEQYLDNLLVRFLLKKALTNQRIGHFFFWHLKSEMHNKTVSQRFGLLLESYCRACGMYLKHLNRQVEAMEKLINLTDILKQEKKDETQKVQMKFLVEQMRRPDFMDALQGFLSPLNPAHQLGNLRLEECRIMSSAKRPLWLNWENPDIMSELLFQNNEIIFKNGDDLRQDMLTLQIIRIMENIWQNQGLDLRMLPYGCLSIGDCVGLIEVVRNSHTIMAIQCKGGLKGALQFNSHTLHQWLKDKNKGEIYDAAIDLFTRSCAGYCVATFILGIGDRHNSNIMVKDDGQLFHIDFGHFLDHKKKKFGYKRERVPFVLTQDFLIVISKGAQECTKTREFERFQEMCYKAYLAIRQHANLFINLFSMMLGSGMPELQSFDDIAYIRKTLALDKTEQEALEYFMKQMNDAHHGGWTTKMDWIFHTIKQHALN
T2 sequence (P27986 whole entry partner): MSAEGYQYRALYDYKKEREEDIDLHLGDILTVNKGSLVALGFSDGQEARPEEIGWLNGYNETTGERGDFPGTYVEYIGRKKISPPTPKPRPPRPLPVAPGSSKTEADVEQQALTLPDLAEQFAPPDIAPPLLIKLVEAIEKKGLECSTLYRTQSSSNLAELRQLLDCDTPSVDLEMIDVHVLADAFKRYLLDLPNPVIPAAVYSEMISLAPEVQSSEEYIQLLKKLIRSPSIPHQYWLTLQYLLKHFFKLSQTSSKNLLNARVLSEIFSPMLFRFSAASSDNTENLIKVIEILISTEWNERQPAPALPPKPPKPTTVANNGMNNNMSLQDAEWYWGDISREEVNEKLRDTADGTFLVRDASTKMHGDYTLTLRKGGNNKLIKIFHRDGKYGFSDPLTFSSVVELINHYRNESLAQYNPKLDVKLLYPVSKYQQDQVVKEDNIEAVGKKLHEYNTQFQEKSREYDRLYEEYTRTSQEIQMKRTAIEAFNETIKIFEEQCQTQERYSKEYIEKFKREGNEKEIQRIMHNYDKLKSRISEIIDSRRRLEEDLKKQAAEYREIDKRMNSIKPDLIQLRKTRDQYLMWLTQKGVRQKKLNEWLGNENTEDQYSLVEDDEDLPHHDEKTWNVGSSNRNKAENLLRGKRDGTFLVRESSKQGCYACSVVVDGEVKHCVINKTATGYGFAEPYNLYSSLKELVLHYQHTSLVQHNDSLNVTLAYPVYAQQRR
T1 sequence (P32871 whole entry): as the sequence (P32871 whole entry Q859A) above, with A859Q counted along it
T1 sequence (P27986 whole entry partner): as the sequence (P27986 whole entry partner) above

For `Nc1ncnc2c1ncn2[C@@H]1O[C@H](COP(=O)(O)OP(=O)(O)OP(=O)(O)O)[C@@H](O)[C@H]1O` [ATP, reference compound], the Km ([1]; PI3K wild-type, 0-200 μM ATP, mean ± S.E. of 14 experiments, read-out: Michaelis constant (Km), ATP activation kinetics) was 60 ± 6 µM and the Km ([2]; PI3Kα Q859A mutant, 0-200 μM ATP, mean ± S.E. of 5 experiments, read-out: Michaelis constant (Km), ATP activation kinetics) was 72 ± 8 µM.

In the case of `Cc1nc(NC(=O)N2CCC[C@H]2C(N)=O)sc1-c1ccnc(C(C)(C)C(F)(F)F)c1` [Compound I, (S)-Pyrrolidine-1,2-dicarboxylic acid 2-amide 1-({4-methyl-5-[2-(2,2,2-trifluoro-1,1-dimethyl-ethyl)-pyridin-4-yl]-thiazol-2-yl}-amide)], the IC50 ([1]; PI3Kα wild-type p110α/p85α, 30 μM ATP, 20 μM PIP2, 60 min, mean ± S.E. of 10 experiments) is reported as 0.0084 ± 0.001 µM, the IC50 ([2]; PI3Kα Q859A mutant p110α/p85α, 30 μM ATP, 20 μM PIP2, 60 min, mean ± S.E. of 7 experiments) is reported as 0.122 ± 0.028 µM and the “fold increase in the IC50, Q859A mutant versus wildtype” value [3] is reported as 14.5 fold.
